Results on 19 molecules are retold here after US11334695B2, “Antiperspirant and deodorant compositions comprising malodor reduction compositions” (The Procter & Gamble Company, priority 2014, dated 2022).

The experiment can be described thus: Blocker Index (BI), expert grader ranking of malodor strength of isovaleric acid swatch treated with test material. On the procedure:
Making Swatches Treated with the Test Material A clean swatch is treated with 13 μL of a known concentration of a test sample material resulting in an about 1 cm of the solution on the clean swatch. Just like the reference swatches, the test sample material swatch is dried in a vented hood for 30 minutes and then wrapped in aluminum foil to prevent contamination. The test material swatches and the FFI reference swatches should be made within 2 hrs of each other. The test material swatch must be used within 0.5 to 12 hours and discarded after 12 hours. Assigning the FFI to the Test Material At least two perfumers/expert graders are used to assign an FFI grade to a test sample. The perfumer/expert grader smells the test sample swatch by holding that swatch 1 inch from their nose with their nose centered over the area where the test sample was pipetted on to the fabric and then assigns the test sample an FFI grade using the FFI reference scale anchor swatches as references. In cases where the test sample material is graded greater than 3, the test material is not a blocker material or the concentration of the material needs to be lowered and reevaluated to determine if a lower level has a malodor blocker functionality. Method for Assigning the BI to Test Sample The first step in the method for assigning a BI to a test sample material on the BI reference scale is to create the BI reference swatches. […] Fabric swatches for this test are white knit polycotton (4 inch×4 inch) swatches from EMC ordered as PC 50/50. The supplier is instructed to strip the swatches first, stripping involves washing twice with a fragrance-free detergent and rinsing three times. […] The BI scale contains one clean swatch with no malodor applied. […] These solutions are pipetted to the middle of the swatches. […] After drying for 30 minutes in a vented hood, the swatches are wrapped in aluminum foil to prevent odor contamination to the treated swatch. A clean untreated swatch is also included as the lowest anchor point of reference for malodor strength on the BI scale. The BI reference scale swatches should be used within 0.5 to 12 hours and discarded after 12 hours. The swatches are used as scale anchor points when graders evaluate a test sample(s) and are assigned a Blocker Index (BI) as show in Table 12. […] The perfumer/expert grader is asked to rank order swatches according to a scale between 0 and 3.
The reference swatches represent the 0, 1, 2, and 3 BIs on the BI reference scale, Table 12. The expert grader should familiarizes him/herself with the strength of the odor on the BI reference swatches by sniffing each one starting at 0 (the lowest odor strength) and ending at 3 (the highest odor strength). This should be done prior to evaluating the swatch treated with the test material.
Making the Malodorous Swatch and Treating it with a Test Material To evaluate the BI, the test material is applied to a malodorous swatch to determine how well the test material blocks the malodor. […] After drying the malodorous swatch a known concentration of test material solution, between 1 ppm and 100 ppm is pipetted onto the malodorous swatch. […] It is sometimes necessary to evaluate several levels of the test material between about 1 and about 100 ppm to determine the BI. Assigning the BI to the Test Material At least two perfumers/expert graders are used to assign the BI to the test sample. […] The test sample swatch is assigned a BI at or between numbers on the BI in table.

The mark [1] stands for this setting: test material at 10 ppm on isovaleric acid swatch.
[2] abbreviates: test material at 50 ppm on isovaleric acid swatch.
The mark [3] stands for this setting: test material Conc 10 ppm on swatch with 20 μL 0.08% isovaleric acid, scale 0 to 3.
The mark [4] stands for this setting: test material Conc 50 ppm on swatch with 20 μL 0.08% isovaleric acid, scale 0 to 3.

The molecule `CC1(C)CCc2ccc(CCC=O)cc21` displayed a BI under setting [1] of 1.5 and a BI under setting [2] of 2.7.
`CC1CCC2(C(C)C)CC(C)OC2C1` (stereo not shown): the BI by setting is: under setting [1], 2.0; under setting [2], 2.2.
Regarding `CCC(=O)OC1CC2C3C=CCC3C1C2(C)C` (stereo not shown), the BI runs as follows: under setting [1], 1.5; under setting [2], 2.2.
As to `O=C1CCC2CCCCC2O1` (stereo not shown) [3,4,4a,5,6,7,8,8a-octahydrochromen-2-one], the BI under setting [3] is on record as 2.0 and the BI under setting [4] was determined as 2.0.
As for `CC(C)(C)C1CCCCC1` [4-tert-butyl cyclohexane], the BI runs as follows: under setting [3], 2.0; under setting [4], 2.0.
Consider `CCCCCCCCCCCCCCCC(=O)OC` [Material 109], for which the BI under setting [3] was found to be 2.0.
In turn, `CCCCCCCCCCCCO` [Material 174] displayed a BI under setting [4] of 2.3.
In the case of `CC(=O)OCCCCCCC(C)C` [Material 204], the BI by setting is: under setting [3], 2.0; under setting [4], 2.7.
On to `CC1(C)CCc2ccc(CCC=O)cc21` [Material 261], for which the BI reads like this: under setting [3], 1.8; under setting [4], 1.3.
Consider `CC(=O)OC1CC2CC1C1CC=CC21` (stereo not shown) [Material 281], for which the BI by setting is: under setting [3], 2.0; under setting [4], 2.0.
In turn, `CCCCCCCCCCCC(=O)OCC` [Material 391] yielded a BI under setting [4] of 2.2.
In the case of `C=CC(C)=CCC=C(C)C` [Material 524], the BI under setting [4] is reported as 2.8.
In turn, `CCC(O)COC1CCCCC1C(C)(C)C` (stereo not shown) [Material 677] displayed a BI under setting [3] of 2.3 and a BI under setting [4] of 2.0.
In the case of `CC(CCO)CCc1ccccc1` (stereo not shown) [Material 962], the BI under setting [3] was determined as 2.3 and the BI under setting [4] was 1.7.
For the molecule `CCOC(=O)OC1C(C)CCC(C)C1C` (stereo not shown) [Material 1005], the BI under setting [4] is reported as 2.6.
In the case of `COC(=O)OC1CC/C=C\CCC1` (stereo not shown) [Material 1139], the BI reads like this: under setting [3], 2.0; under setting [4], 2.7.
`C=C1CCC2OC2(C)CCC2C1CC2(C)C` (stereo not shown) [Material 1148]: under setting [4], the BI amounted to 2.3.
As for `CC1(C)C2CCC3(C2)C1C(=O)CCC3(C)C` (stereo not shown) [Material 1149], the BI amounted to 1.5 under setting [3] and 2.3 under setting [4].
Consider `CCCCCCCCCCCO` [Undecanol], for which the BI under setting [4] was 2.3.
